In series [1] the test system is MDA-MB-231 cells. The series can be described thus: cells. It is filed as in vitro ADME. The conditions noted are these: Homo sapiens; MDA-MB-231, 24 hours; read-out: Extracellular DIME (concentration that causes 100% growth inhibition). The method, then:
(§1) Monolayer cultures in 9.6 cm^2 wells (3 ml medium) were exposed to [^14 C]-DIME (10.55 mCi/mmol) for 24 hours, then washed 7 times with 1 ml medium containing unlabeled DIME. The cells were dissolved in 1 ml of 4% Na2 CO3 and 0.2 M NaOH and radioactivity measured by scintillation counting. Cell volume was determined by hematocrit and cell counting from parallel wells treated with unlabeled DIME.
(§2) A striking property of DIME is its apparent selectivity for tumors in vivo. We performed drug metabolism and cellular DIME uptake tests to further characterize this property. Incubation of cells in culture with [^14 DIME, under conditions described previously, Bauer et al., 1996, "Modification of growth related enzymatic pathways and apparent loss of tumorigenicity of a ras-transformed bovine endothelial cell line by treatment with 5-iodo-6-amino-1,2-benzopyrone (INH2 BP)" Intl. J. Oncol. […] As shown in Table 9 the tumorigenic transformed cells in general took up DIME more rapidly than nontransformed cells (CV-1) or cells that were less sensitive to killing-by DIME (e.g. E-ras 20). […] On the other hand homogenates of organs of normal mice actively metabolize (de-esterify) DIME as illustrated in Table 10.

Series [2] relates to CV-1 cells. The series can be described thus: cells. As to conditions: Cercopithecidae; CV-1, 24 hours; read-out: Extracellular DIME (concentration that causes 100% growth inhibition). It is filed as in vitro ADME. The method, then:
as §1, §2

For series [3], the system named is CV-1-Transformed cells. The series can be described thus: cells. As to conditions: 24 hours, read-out: Extracellular DIME (concentration that causes 100% growth inhibition). It is filed as in vitro ADME. The method, then: as §1, §2
For series [4], the system named is MDA-MB-231 cells. In words: Chromosome analysis by in situ hybridization. It is filed as cell-based, human. The conditions noted are these: 1 μM. How it is done: The MDA-MB-231 cell line was obtained from ATCC (Rockville, Md., USA) and cells were cultured in T-75 flasks at 37° C. in Minimum Essential Medium-alpha, supplemented with 10% FCS. In controls, not receiving DIME, 0.1 μg/ml colcemid was added to cultures for 4 hrs prior to the collection of metaphase-blocked cells and preparation of cell spreads. […] Cells (10^7) were isolated from T-75 trypsinization for 5 min with 0.025% trypsin, and sedimented by centrifugation, resuspended and kept in 10 ml of 75 mM KC1 at 37° C. for 10 min, resedimented, and fixed in 10 ml methanol-acetic acid, with four successive changes of methanol-acetic acid. An aliquot of the final cell suspension (100 μl) was dropped on ethanol-cleaned slides and air-dried.
Human chromosome-specific probes were produced by ONCOR (Gaithersburg, Md., USA). Hybridization was accomplished by a modification of the procedure described by Pinkel et al., 1986, "Cytogentic Analysis Using Quantitative High-Sensitivity Fluorescence Hybridization," Proc. Natl. Acad. Sci. U.S.A. 83:2934-2938. The slide-mounted cells were treated with pepsin (20 μg/ml in 0.01 N HCl) at 37° C. for 10 min and then dehydrated in a 70%, 85% and 100% ethanol series, then DNA was denatured by immersion in 70% formamide, followed by 2X standard saline citrate (IX SSC is […], 0.015 M sodium citrate, pH 7.0) for 2 min. at 70° C., and dehydrated in ethanol as described above. The hybridization mixture in a 10 μl total volume consisted of 50% formamide, 2X SSC, 10% dextran sulfate, 0.5 μg herring sperm DNA, and 1-5 μg of proteinase K-treated human placental DNA. Both herring sperm DNA and human placental DNA were previously sonicated to 200-600 bp fragments, and -40 ng of digoxigeninylated probe DNA (denatured at 70° C. for 5 min) added, and incubated at 37° C. for 1 hr. This mixture was placed on slides containing the fixed cells, sealed under a coverslip, and incubated at 37° C. for 2 to 3 days. […] The slides were viewed in a Zeiss fluorescence microscope equipped with a multiple band pass filter (Chroma Technology, Brattleboro, Vt., USA) to determine the number of FISH signals in each nucleus.

Series [5] is described as follows: Serum half-life and bioavailability of 14C-DIME. It is filed as in vivo, mouse. How it is done: Aliquots (50 μL) of blood were assayed in a liquid scintillation counter and data expressed as microgram-equivalents per mL. The blood level data were analyzed by the RSTRIP method (Micromath, Salt Lake City, Utah).

Several values for one entry are separate records, joined by “and”; a condition that tells them apart may be missing. Identical values can stand only once.

Data on one compound can be found in patent US6017958A, “Method of treating malignant tumors with thyroxine analogues having no significant hormonal activity” (Octamer, Inc., priority 1997, dated 2000).

For `COC(=O)c1cc(I)c(Oc2ccc(OC)cc2)c(I)c1` [Compound 1, Methyl 3,5-diiodo-4-(4'-methoxyphenoxy)benzoate], the IC100 in series [1], in series [2] and in series [3] was 2 µM throughout. For the same compound, in series [4] (18 hrs), the “effect on chromosomes (in situ hybridization)” value is given as “no detectable effect”. Also, in series [4] (5 days), the chromosome breakage entry is “No evidence for chromosome breakage”. Also, the chromosome-19 signals result in series [4] (5 days, some cells) is “about 40 chromosome-19 signals”. For the same compound, in series [4] (5 days, some cells), the chromosomes per cell entry is recorded as “over 100 chromosomes”. In series [5] (i.v., 24.5 mg/kg), the “i.v. serum half-life (t1/2)” value lay within 2 to 2.5 h. In series [5] (oral 126 mg/kg vs i.v. 24.5 mg/kg, listed as DIME, 126 mg/kg), the oral bioavailability was 83% and 87%. Further, the “half-life (t1/2)” value in series [5] (serum) is 2 to 2.5 h.
